Data taken from PubChem BioAssay (NCI).
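Cells were grown in 96-well plates and exposed to each compound for 48 hours at five concentrations; endpoints were interpolated linearly between bracketing concentrations, or set to the highest concentration if not reached. TGI is the concentration that stops growth completely.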

Tests used:
Experiment in all cases: NCI tumour cell line growth inhibition, 48 h
U251 CNS = system: U251 CNS
UACC-257 melanoma = system: UACC-257 melanoma
CCRF-CEM leukemia = system: CCRF-CEM leukemia
OVCAR-5 ovarian = system: OVCAR-5 ovarian
EKVX NSCLC = system: EKVX NSCLC
SK-MEL-5 melanoma = system: SK-MEL-5 melanoma
HOP-62 NSCLC = system: HOP-62 NSCLC
SNB-75 CNS = system: SNB-75 CNS
SK-OV-3 ovarian = system: SK-OV-3 ovarian
OVCAR-3 ovarian = system: OVCAR-3 ovarian
HCT-116 colon = system: HCT-116 colon
MCF7 breast = system: MCF7 breast
UO-31 renal = system: UO-31 renal

Row | Compound | TGI (U251 CNS) | TGI (UACC-257 melanoma) | TGI (CCRF-CEM leukemia) | TGI (OVCAR-5 ovarian) | TGI (EKVX NSCLC) | TGI (SK-MEL-5 melanoma) | TGI (HOP-62 NSCLC) | TGI (SNB-75 CNS) | TGI (SK-OV-3 ovarian) | TGI (OVCAR-3 ovarian) | TGI (HCT-116 colon) | TGI (MCF7 breast) | TGI (UO-31 renal)
1 | COC1=CC(=O)c2c(O)ccc(O)c2C1=O | 22.1 µM | 2.88 µM | 43.6 µM | 35.7 µM | 37.8 µM | 2.65 µM | 10.9 µM | 3.65 µM | 33 µM | 5.03 µM | 31.2 µM | 8.02 µM | 34.9 µM
2 | Clc1ccc2c(c1)CC1C[N+]3=C(CCCC3)C1=C2 (centres undefined) | > 100 µM | > 100 µM | > 100 µM | > 100 µM | > 100 µM | > 100 µM | > 100 µM | > 100 µM | > 100 µM | > 100 µM | > 100 µM | > 100 µM | > 100 µM
3 | COc1cc(C2c3[nH]c4ccc(F)cc4c3C[C@H]3COC(=O)N23)cc(OC)c1O (some centres undefined) | 25 µM | > 100 µM | > 100 µM | 49.2 µM | 92.3 µM | 34.7 µM | 21.6 µM | 8.84 µM | 57.2 µM | 56 µM | 25.5 µM | > 100 µM | 28.9 µM
4 | CCOC(=O)/C=C(\C(=O)OCC)n1cnc2c(N)ncnc21 | 20.8 µM | 27.8 µM | 4.51 µM | 14 µM | 30.7 µM | 28.6 µM | 39.8 µM | 26 µM | 32 µM | 21.4 µM | 12.3 µM | 11.9 µM | 30 µM
5 | COc1cc(-c2c3c([nH]c(=O)c2C#N)-c2cc([N+](=O)[O-])ccc2CCC3)cc(OC)c1OC | > 100 µM | > 100 µM | > 100 µM | 69.1 µM | 70.5 µM | 26.7 µM | 92.2 µM | 62.6 µM | 66.4 µM | 46.3 µM | 37.7 µM | 44.5 µM | 75.1 µM
6 | Cc1nn(-c2ccccc2)c2c1C(c1cc3ccccc3nc1Cl)NC(=S)N2 (centres undefined) | 83 µM | > 100 µM | > 100 µM | > 100 µM | > 100 µM | > 100 µM | > 100 µM | > 100 µM | > 100 µM | > 100 µM | > 100 µM | > 100 µM | 50.4 µM
7 | O=c1c2ccccc2c2c1c1c3ccccc3c(=O)c1c1c3ccccc3c(=O)c21 | > 100 µM | > 100 µM | > 100 µM | > 100 µM | > 100 µM | > 100 µM | > 100 µM | > 100 µM | > 100 µM | > 100 µM | > 100 µM | > 100 µM | > 100 µM
8 | c1ccc2c(c1)CCN1CCc3c([nH]c4ccccc34)C21 (centres undefined) | > 100 µM | 91.6 µM | 95.5 µM | > 100 µM | 82.1 µM | 29.7 µM | > 100 µM | 79 µM | > 100 µM | 66.7 µM | 76.5 µM | > 100 µM | > 100 µM
9 | CC(=O)O[C@H]1[C@@H](OC2CCCC2(c2ccccc2)c2ccccc2)O[N+]([O-])=C[C@@]12COCc1cc3c(cc12)OCO3 (some centres undefined) | 22.6 µM | > 100 µM | > 24.5 µM | > 51.5 µM | > 25.7 µM | 16.8 µM | 7.67 µM | 34.6 µM | > 91.6 µM | 4.71 µM | > 47.5 µM | > 45.2 µM | 14.1 µM
10 | CNC(=O)c1n[nH]n(Cc2ccccc2)c1=S | > 100 µM | > 100 µM | > 100 µM | > 100 µM | > 100 µM | > 100 µM | > 100 µM | > 100 µM | > 100 µM | > 100 µM | > 100 µM | > 100 µM | > 100 µM
11 | COc1ccc(N2CCN(Cc3c(C(C)=O)[n+](=O)c4ccccc4n3[O-])CC2)cc1 | > 100 µM | > 100 µM | > 100 µM | > 100 µM | > 100 µM | > 100 µM | > 100 µM | > 100 µM | > 100 µM | > 100 µM | > 100 µM | > 100 µM | > 100 µM
12 | CC(=O)Nc1ccc(S(=O)(=O)[N-]C2C(=O)c3ccccc3C(=O)C2[n+]2ccccc2)cc1 (centres undefined) | 27.3 µM | 29.5 µM | 40.5 µM | 32.3 µM | > 100 µM | 15.3 µM | 35.3 µM | 30.1 µM | > 100 µM | 32.3 µM | > 100 µM | 31.8 µM | 21.2 µM
13 | CCCN1CN(c2ccccc2)C2(CCN(CCCC(=O)c3ccc(F)cc3)CC2)C1=O | 30.7 µM | 6.09 µM | 5.16 µM | 20.2 µM | 54.2 µM | 4.84 µM | 8.66 µM | 47.5 µM | 43.1 µM | 30.3 µM | 8.75 µM | 11.9 µM | 30.2 µM
